System: 276233-004-R-J1-PDC complex spheroid viability
Test: Anticancer human tumor 276233-004-R-J1-PDC patient-derived colon adenocarcinoma cell line growth inhibition [GQUAD]
Conditions: for IC50: curve of first compound; for viability, T/C: stronger effect = lower value
Procedure, shortened: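 Viability of tumor cells grown as complex spheroids with endothelial and stromal cells, exposed to drug combinations. Top concentration at or near clinical Cmax (else 10 microM), diluted in half-log increments.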

[1] = second compound 0.0316 µM, first compound 0.0316 µM
[2] = second compound 0.0316 µM, first compound 0.1 µM
[3] = second compound 0.0316 µM, first compound 0.316 µM
[4] = second compound 0.0316 µM, first compound 1 µM
[5] = second compound 0.0316 µM, first compound 3.16 µM
[6] = second compound 0.0316 µM, first compound 10 µM
[7] = second compound 0.1 µM, first compound 0.0316 µM
[8] = second compound 0.1 µM, first compound 0.1 µM
[9] = second compound 0.1 µM, first compound 0.316 µM
[10] = second compound 0.1 µM, first compound 1 µM
[11] = second compound 0.1 µM, first compound 3.16 µM
[12] = second compound 0.1 µM, first compound 10 µM
[13] = second compound 0.316 µM, first compound 0.0316 µM
[14] = second compound 0.316 µM, first compound 0.1 µM
[15] = second compound 0.316 µM, first compound 0.316 µM
[16] = second compound 0.316 µM, first compound 1 µM
[17] = second compound 0.316 µM, first compound 3.16 µM
[18] = second compound 0.316 µM, first compound 10 µM
[19] = second compound 1 µM, first compound 0.0316 µM
[20] = second compound 1 µM, first compound 0.1 µM
[21] = second compound 1 µM, first compound 0.316 µM
[22] = second compound 1 µM, first compound 1 µM
[23] = second compound 1 µM, first compound 3.16 µM
[24] = second compound 1 µM, first compound 10 µM
[25] = second compound 3.16 µM, first compound 0.0316 µM
[26] = second compound 3.16 µM, first compound 0.1 µM
[27] = second compound 3.16 µM, first compound 0.316 µM
[28] = second compound 3.16 µM, first compound 1 µM
[29] = second compound 3.16 µM, first compound 3.16 µM
[30] = second compound 3.16 µM, first compound 10 µM
[31] = second compound 10 µM, first compound 0.0316 µM
[32] = second compound 10 µM, first compound 0.1 µM
[33] = second compound 10 µM, first compound 0.316 µM
[34] = second compound 10 µM, first compound 1 µM
[35] = second compound 10 µM, first compound 3.16 µM
[36] = second compound 10 µM, first compound 10 µM
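Further: spheroids exposed to drugs for seven days.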
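Wherever viability, T/C is given: 100% = DMSO vehicle control viability.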

O=c1[nH]cc(F)c(=O)[nH]1 + Cc1[nH]c2ccc(F)cc2c1-c1nc2c3cccnc3c3ncccc3c2[nH]1
IC50 (second compound 0.0316 µM): > 10 µM | IC50 (second compound 0.1 µM): > 10 µM | IC50 (second compound 0.316 µM): > 10 µM | IC50 (second compound 1 µM): > 10 µM | IC50 (second compound 3.16 µM): > 10 µM | IC50 (second compound 10 µM): < 0.0316 µM | viability, T/C [1]: 71.4% | viability, T/C [2]: 85.6% | viability, T/C [3]: 92.9% | viability, T/C [4]: 76.8% | viability, T/C [5]: 77.5% | viability, T/C [6]: 100% | viability, T/C [7]: 79.3% | viability, T/C [8]: 97.2% | viability, T/C [9]: 88.9% | viability, T/C [10]: 82.7% | viability, T/C [11]: 83% | viability, T/C [12]: 80% | viability, T/C [13]: 75.7% | viability, T/C [14]: 91.2% | viability, T/C [15]: 80.4% | viability, T/C [16]: 94% | viability, T/C [17]: 74.5% | viability, T/C [18]: 85.3% | viability, T/C [19]: 57.3% | viability, T/C [20]: 63% | viability, T/C [21]: 73.1% | viability, T/C [22]: 65.6% | viability, T/C [23]: 70.8% | viability, T/C [24]: 73.3% | viability, T/C [25]: 54.6% | viability, T/C [26]: 49.9% | viability, T/C [27]: 48.5% | viability, T/C [28]: 48% | viability, T/C [29]: 53.8% | viability, T/C [30]: 51.9% | viability, T/C [31]: 41.2% | viability, T/C [32]: 46.7% | viability, T/C [33]: 43.2% | viability, T/C [34]: 44.5% | viability, T/C [35]: 45.3% | viability, T/C [36]: 42.9%

CC1COCCN1c1cc(-c2ccnn2C)c2ccnc(-c3ccn[nH]3)c2n1 (stereo unspecified) + CN(C)c1ccc(Nc2c3ccc(NC(=O)CCN4CCCC4)cc3nc3cc(NC(=O)CCN4CCCC4)ccc23)cc1
IC50 (second compound 0.0316 µM): 7.14 µM | IC50 (second compound 0.1 µM): 6.12 µM | IC50 (second compound 0.316 µM): 0.513 µM | IC50 (second compound 1 µM): 0.109 µM | IC50 (second compound 3.16 µM): 0.145 µM | IC50 (second compound 10 µM): < 0.0316 µM | viability, T/C [1]: 83.7% | viability, T/C [2]: 77.8% | viability, T/C [3]: 74.8% | viability, T/C [4]: 73.1% | viability, T/C [5]: 55% | viability, T/C [6]: 47.9% | viability, T/C [7]: 80.4% | viability, T/C [8]: 70% | viability, T/C [9]: 76.6% | viability, T/C [10]: 69.9% | viability, T/C [11]: 56.3% | viability, T/C [12]: 44.1% | viability, T/C [13]: 77.9% | viability, T/C [14]: 61.6% | viability, T/C [15]: 51.6% | viability, T/C [16]: 52.5% | viability, T/C [17]: 35.3% | viability, T/C [18]: 40.3% | viability, T/C [19]: 52.9% | viability, T/C [20]: 54.1% | viability, T/C [21]: 44.7% | viability, T/C [22]: 40.5% | viability, T/C [23]: 38.2% | viability, T/C [24]: 34.4% | viability, T/C [25]: 58.5% | viability, T/C [26]: 56% | viability, T/C [27]: 42.6% | viability, T/C [28]: 40.5% | viability, T/C [29]: 40.4% | viability, T/C [30]: 35.5% | viability, T/C [31]: 46.2% | viability, T/C [32]: 40.1% | viability, T/C [33]: 33.8% | viability, T/C [34]: 32.6% | viability, T/C [35]: 39.8% | viability, T/C [36]: 27.8%

CC(=O)O[C@H]1C(=O)[C@@]2(C)[C@H]([C@H](OC(=O)c3ccccc3)[C@]3(O)C[C@H](OC(=O)[C@H](O)[C@@H](NC(=O)c4ccccc4)c4ccccc4)C(C)=C1C3(C)C)[C@]1(OC(C)=O)CO[C@@H]1C[C@@H]2O + Cc1[nH]c2ccc(F)cc2c1-c1nc2c3cccnc3c3ncccc3c2[nH]1
IC50 (second compound 0.0316 µM): > 10 µM | IC50 (second compound 0.1 µM): > 10 µM | IC50 (second compound 0.316 µM): > 10 µM | IC50 (second compound 1 µM): 0.341 µM | IC50 (second compound 3.16 µM): < 0.0316 µM | IC50 (second compound 10 µM): < 0.0316 µM | viability, T/C [1]: 82.4% | viability, T/C [2]: 72% | viability, T/C [3]: 68.8% | viability, T/C [4]: 81.9% | viability, T/C [5]: 100% | viability, T/C [6]: 70.9% | viability, T/C [7]: 66.3% | viability, T/C [8]: 77.2% | viability, T/C [9]: 68.7% | viability, T/C [10]: 77.3% | viability, T/C [11]: 64.2% | viability, T/C [12]: 64.9% | viability, T/C [13]: 72.6% | viability, T/C [14]: 65.4% | viability, T/C [15]: 57.1% | viability, T/C [16]: 53.5% | viability, T/C [17]: 62.4% | viability, T/C [18]: 47.8% | viability, T/C [19]: 49.7% | viability, T/C [20]: 57% | viability, T/C [21]: 55.4% | viability, T/C [22]: 39.2% | viability, T/C [23]: 45.8% | viability, T/C [24]: 51.8% | viability, T/C [25]: 20.4% | viability, T/C [26]: 14.5% | viability, T/C [27]: 15.4% | viability, T/C [28]: 12.3% | viability, T/C [29]: 13.6% | viability, T/C [30]: 12.1% | viability, T/C [31]: 42.2% | viability, T/C [32]: 40.1% | viability, T/C [33]: 38.5% | viability, T/C [34]: 28.1% | viability, T/C [35]: 30.4% | viability, T/C [36]: 33.5%

— PubChem BioAssay AID2060496 (Molecular Pharmacology Branch, DTP, NCI, 2025)
